What was measured:
[1] = water-solubility examined by calculation: polarization term δp of the solubility parameter (classical molecular dynamics, Desmond/OPLS2005); details: from the difference between the calculated δp and the δp of water (16.0); larger difference = lower solubility
Procedure: Then, the water-solubility of 2,9hpp2Phen was examined by calculation and the results are shown.
Desmond was used as software for the classical molecular dynamics calculation, and OPLS2005 was used for the force field. The calculation was performed using a high performance computer (Apollo 6500 manufactured by Hewlett Packard Enterprise Development).
A standard cell containing approximately 32 molecules is used a calculation model. […] After that, the structures are moved and rotated at random to move the molecules by Monte Carlo simulated annealing using OPLS2005 for the force field. Furthermore, the molecules are moved toward the center of the standard cell such that the density thereof is maximized; thus, the initial arrangement is obtained.
As a basis function, 6-31G** was used, and as a functional, B3LYP-D3 was used. […]
The aforementioned initial arrangement is subjected to Brownian motion simulation and then defined in an NVT ensemble; subsequently, calculation in an NPT ensemble is performed for an enough relaxation time (30 ns) under the conditions of 1 atm and 300 K with respect to time steps that reproduce molecular vibration (2 fs), so that an amorphous solid is calculated. […]
The actually measured value δp corresponding to the polarization term for the water-solubility parameter is disclosed as 16.0 in Japanese Published Patent Application No. 2017-173056, for example. […]

[2] = statement in words, background/description; cited from earlier work

| solubility in water compared with hpp2Py [1] | Compound | solubility in water [2] |
| --- | --- | --- |
| less soluble in water than hpp2Py | c1cc2ccc3ccc(N4CCCN5CCCN=C54)nc3c2nc1N1CCCN2CCCN=C21 [2,9hpp2Phen, 2,9-bis(1,3,4,6,7,8-hexahydro-2H-pyrimido[1,2-a]pyrimidin-1-yl)-1,10-phenanthroline] | – |
| less soluble in water than hpp2Py | c1cc(N2CCCN3CCCN=C32)c2ccc3c(N4CCCN5CCCN=C54)ccnc3c2n1 [4,7hpp2Phen, 4,7-bis(1,3,4,6,7,8-hexahydro-2H-pyrimido[1,2-a]pyrimidin-1-yl)-1,10-phenanthroline] | – |
| – | c1cc(N2CCCN3CCCN=C32)nc(N2CCCN3CCCN=C32)c1 [hpp2Py, 1,1′-pyridine-2,6-diyl-bis(1,3,4,6,7,8-hexahydro-2H-pyrimido[1,2-a]pyrimidine)] | highly soluble in water |

Source: patent US20230354703A1, “ORGANIC COMPOUND AND LIGHT-EMITTING DEVICE” (SEMICONDUCTOR ENERGY LABORATORY CO., LTD., priority 2022, published 2023)
